Test results taken from patent US10350230B2, “Use of albiflorin or pharmaceutically acceptable salt for prevention and/or treatment of irritable bowel syndrome” (priority 2015, dated 2019).
Structures can show the parent of a compound that is named as a salt.

How the values were obtained:
[1] = tested on: small intestine spasm models induced by Neostigmine in mice; test: Abdominal pain of irritable bowel syndrome in mice (Neostigmine small intestine spasm, carbon powder propulsion); format: in vivo; details: for propulsive distance and propulsive rate of carbon powder suspension in mice intestine tract stimulated by Neostigmine (result in words): high-, mid- and low-dose groups, compared with pathology modeling control group; for Propulsive distance / Propulsive rate: 7 days, Neostigmine mice, carbon powder
Protocol: All the animals were deprived of food for 12 hours before the test. […] After 15 minutes, gavage administration of carbon powder paste was performed on all groups (0.2 ml/10 g body weight, each dosage contains 0.05 g of carbon powder and 0.02 g of carboxymethyl cellulose). The animals were killed 20 minutes later. The propulsive length of carbon powder in small intestine and the total length of small intestine were measured respectively, and then the propulsive rate of carbon powder was calculated. Statistical analysis of data was performed using t-test for intergroup comparison.
The propulsive distance: to measure the propulsive length of carbon powder in small intestine.
Propulsive rate (%)=(propulsive length/total length of small intestine)×100%.

[2] = tested on: diarrhea model of irritable bowel syndrome induced by restraint stress in rats; test: Diarrhea of irritable bowel syndrome induced by restraint stress in rat; format: in vivo; details: for number of fecal pellets excreted (result in words): high-, mid- and low-dose groups, compared with model control group; for Number of fecal pellets excreted in 1 h / Time for excreting glass ball: 7 days, restraint stress rats
Text: The restraint stress stimulus method was used to induce abnormal defecation in rats, thereby leading to increase of colon smooth muscle movement and accelerating intestinal transport.
The animals were randomly divided into 10 groups as follows: normal control group; model control group (normal saline); high-, mid- and low-dose groups of test drugs (albiflorin and paeoniflorin); and positive control groups (loperamide hydrochloride (Imodium™) and trimebutine maleate (Yuanshengliwei™)). Gavage administration was performed on each group once a day, for 7 consecutive days.
The rats were deprived of food for 24 hours before the test. Half an hour after the last administration, the rats were anesthetized with ethyl ether. After the rat fainted away, its front shoulder, front upper limbs and chest were bound with scotch tape to prevent the front upper limbs from scratching its face, but the movement of the front upper limbs was not limited. A glass ball with a diameter of 3 mm was placed into the rectum 3 cm away from anus. The rats were moved rapidly into cages which were padded with clean filter paper. Timing started when the rat woke up, and the binding time was one hour. The number of fecal pellets excreted by the rat in one hour and the time for excreting glass ball were recorded. Statistical analysis of data was performed using t-test for intergroup comparison.

[3] = tested on: chronic unpredictable stress (CUS) model in rats; test: Chronic stress depression model in rats: open field test; details: for Number of times of horizontal movement in open field / Number of times of vertical movement in open field: CUS rats, 5 min, Means±SEM; for number of times of horizontal movement of rats in open field (result in words) / number of times of vertical movement of rats in open field (result in words): compared with the model group
[4] = tested on: chronic unpredictable stress (CUS) model in rats; test: Chronic stress depression model in rats: sucrose aqueous solution-drinking test; details: for Sugar aqueous solution preference: 38 days, CUS rats, Means±SEM; for sugar aqueous solution preference of rats (result in words): compared with the model group
[5] = tested on: mice in light-dark shuttle box; test: Light-dark shuttle box test in mice (anti-anxiety test); format: in vivo; details: for number of times of returning from the dark box back to the light box (result in words): albiflorin high-, mid- and low-dose groups, diazepam group, compared with normal control group; for Number of times of returning from dark box back to light box: 7 days, mice
Protocol: Mice were randomly divided into 5 groups, i.e. high-dose group of albiflorin (14 mg/kg/d), mid-dose group of albiflorin (7 mg/kg/d), low-dose group of albiflorin (3.5 mg/kg/d), diazepam group (2.5 mg/kg/d), and normal control group. Gavage administration was performed once a day, for 7 consecutive days. During the administration, animals had free access to food and water. The test was carried out 1 hour after the administration on Day 8.
Within the light-dark shuttle box (44 cm×21 cm×21 cm), the dark box accounts for one third thereof, with a cover on the top; and the light box accounts for two thirds thereof, with illumination brightness; and there is a hole between the two boxes for animal to pass through. During the test, mice were placed in the center of the light box, back to the dark box, and then observed. The number of times of entering into the dark box followed by returning to the light box in mice was counted, which was used as an index for the evaluation of anti-anxiety effect of a drug.
8.1.5 Statistical Analysis The data were expressed as X±SD, and the experimental results were analyzed by one-way ANOVA, using SPSS 11.5 statistical software.

[6] = tested on: sleep time of mice induced by threshold dose of pentobarbital sodium; test: Sleep induced by pentobarbital sodium in mice; format: in vivo; details: for Sleep time: 60 min before pentobarbital sodium 50 mg/kg i.p., mice; for sleep time of mice induced by threshold dose of pentobarbital sodium (result in words): compared with normal saline group
Protocol: Mice with a body weight of 18-22 g, male and female, were selected. Mice with a single-sex were used in each test. The mice were randomly divided into groups as follows: albiflorin group, diazepam group (positive control group) and control group (normal saline). There were 10 mice in each group. 60 minutes after the gavage administration, threshold dose of pentobarbital sodium (50 mg/kg) was injected intraperitoneally. The disappearance of righting reflex was recorded as time to fall asleep, and the period from the righting reflex being disappeared until the righting reflex being recovered was recorded as sleep duration time. Compared with the control group, the significance was determined by time t test.

Compound | propulsive distance and propulsive rate of carbon powder suspension in mice intestine tract stimulated by Neostigmine (result in words) [1] | Propulsive distance ([1]; high-dose, 14 mg/kg/d gavage) | Propulsive rate ([1]; high-dose, 14 mg/kg/d gavage) | Propulsive distance ([1]; low-dose, 3.5 mg/kg/d gavage) | Propulsive rate ([1]; low-dose, 3.5 mg/kg/d gavage) | Propulsive distance ([1]; mid-dose, 7 mg/kg/d gavage) | Propulsive rate ([1]; mid-dose, 7 mg/kg/d gavage) | number of fecal pellets excreted (result in words) [2] | Number of fecal pellets excreted in 1 h ([2]; high-dose, 9.8 mg/kg/d gavage) | Time for excreting glass ball ([2]; high-dose, 9.8 mg/kg/d gavage) | Number of fecal pellets excreted in 1 h ([2]; low-dose, 2.45 mg/kg/d gavage) | Time for excreting glass ball ([2]; low-dose, 2.45 mg/kg/d gavage) | Number of fecal pellets excreted in 1 h ([2]; mid-dose, 4.9 mg/kg/d gavage) | Time for excreting glass ball ([2]; mid-dose, 4.9 mg/kg/d gavage) | number of times of returning from the dark box back to the light box (result in words) [5] | sleep time of mice induced by threshold dose of pentobarbital sodium (result in words) [6] | other results
C[C@@]12C[C@@]3(O)O[C@@H](O1)[C@]1(COC(=O)c4ccccc4)[C@H]3C[C@@]12O[C@@H]1O[C@H](CO)[C@@H](O)[C@H](O)[C@H]1O [Paeoniflorin, paeoniflorin, reference compound] | decreased only in high-dose group | 28.80 ± 3.79 cm | 65.64 ± 8.80% | 31.80 ± 3.79 cm | 72.64 ± 4.69% | 31.00 ± 1.93 cm | 71.92 ± 7.51% | only a trend to decrease | 3.71 ± 2.02 | 10.70 ± 16.06 min | 4.10 ± 1.81 | 10.64 ± 15.01 min | 3.96 ± 1.36 | 10.50 ± 14.03 min |  |  | 
CNCCC(Oc1ccc(C(F)(F)F)cc1)c1ccccc1 (stereo not shown) [Flx, Fluoxetine, reference compound] |  |  |  |  |  |  |  |  |  |  |  |  |  |  |  |  | Number of times of horizontal movement in open field ([3]; 10 mg/kg gavage once a day): 90.60 ± 7.72; Number of times of vertical movement in open field ([3]; 10 mg/kg gavage once a day): 20.80 ± 1.93; number of times of horizontal movement of rats in open field (result in words) ([3]; 10 mg/kg long-term gavage): obviously increased; number of times of vertical movement of rats in open field (result in words) ([3]; 10 mg/kg long-term gavage): obviously increased; Sugar aqueous solution preference ([4]; 10 mg/kg gavage once a day): 70.63 ± 6.86 %; sugar aqueous solution preference of rats (result in words) ([4]; 10 mg/kg long-term gavage): obviously increased
C[C@]12C[C@@H](O)[C@@H]3C[C@@]1(O[C@@H]1O[C@H](CO)[C@@H](O)[C@H](O)[C@H]1O)[C@@]3(COC(=O)c1ccccc1)C(=O)O2 [Albiflorin] | decreased obviously | 22.80 ± 4.78 cm | 57.47 ± 10.67 % | 22.10 ± 3.90 cm | 57.05 ± 4.69 % | 20.80 ± 4.64 cm | 54.53 ± 9.39 % | decreased obviously | 2.50 ± 1.27 | 10.60 ± 17.58 min | 2.60 ± 1.84 | 19.90 ± 17.69 min | 1.80 ± 1.48 | 12.00 ± 17.53 min | significantly increase | obviously prolong | Number of times of horizontal movement in open field ([3]; 3.5 mg/kg gavage once a day): 95.40 ± 9.23; Number of times of vertical movement in open field ([3]; 3.5 mg/kg gavage once a day): 20.50 ± 1.81; number of times of horizontal movement of rats in open field (result in words) ([3]; 3.5 mg/kg): obviously increased; number of times of horizontal movement of rats in open field (result in words) ([3]; 7.0 mg/kg and 14.0 mg/kg): can not obviously increase; Number of times of horizontal movement in open field ([3]; 7.0 mg/kg gavage once a day): 98.20 ± 8.61; Number of times of vertical movement in open field ([3]; 7.0 mg/kg gavage once a day): 21.10 ± 2.17; Number of times of horizontal movement in open field ([3]; 14.0 mg/kg gavage once a day): 104.10 ± 11.11; Number of times of vertical movement in open field ([3]; 14.0 mg/kg gavage once a day): 22.10 ± 2.66; number of times of vertical movement of rats in open field (result in words) ([3]; 3.5-14.0 mg/kg): obviously increased; Number of times of returning from dark box back to light box ([5]; high-dose, 14 mg/kg/d gavage): 13.9 ± 3.23; Number of times of returning from dark box back to light box ([5]; low-dose, 3.5 mg/kg/d gavage): 10.6 ± 3.42; Number of times of returning from dark box back to light box ([5]; mid-dose, 7 mg/kg/d gavage): 12.1 ± 3.51; Sleep time ([6]; 7 mg/kg gavage): 90.2 ± 15.1 min; Sleep time ([6]; 14 mg/kg gavage): 98.8 ± 12.4 min; Sugar aqueous solution preference ([4]; 3.5 mg/kg gavage once a day): 60.04 ± 10.86%; sugar aqueous solution preference of rats (result in words) ([4]; 3.5 mg/kg): did not obviously increase; sugar aqueous solution preference of rats (result in words) ([4]; 7.0 mg/kg and 14.0 mg/kg): obviously increased; Sugar aqueous solution preference ([4]; 7.0 mg/kg gavage once a day): 76.19 ± 5.35 %; Sugar aqueous solution preference ([4]; 14.0 mg/kg gavage once a day): 78.12 ± 4.04 %
CN(C)C(=O)C(CCN1CCC(O)(c2ccc(Cl)cc2)CC1)(c1ccccc1)c1ccccc1 [Loperamide hydrochloride, loperamide hydrochloride] |  |  |  |  |  |  |  |  |  |  |  |  |  |  |  |  | Number of fecal pellets excreted in 1 h ([2]; 0.17 mg/kg/d gavage): 1.40 ± 0.97; Time for excreting glass ball ([2]; 0.17 mg/kg/d gavage): 26.00 ± 28.30 min
CN1C(=O)CN=C(c2ccccc2)c2cc(Cl)ccc21 [Diazepam, diazepam, reference compound] |  |  |  |  |  |  |  |  |  |  |  |  |  |  | significantly increase | obviously prolong | Number of times of returning from dark box back to light box ([5]; 2.5 mg/kg/d gavage): 13.6 ± 3.35; Sleep time ([6]; 0.5 mg/kg gavage): 96. ± 14.6 min; Sleep time ([6]; 1 mg/kg gavage): 102.0 ± 16.2 min
trimebutine maleate |  |  |  |  |  |  |  |  |  |  |  |  |  |  |  |  | Number of fecal pellets excreted in 1 h ([2]; 6.25 mg/kg/d gavage): 3.70 ± 2.26; Time for excreting glass ball ([2]; 6.25 mg/kg/d gavage): 17.80 ± 21.88 min
